{"source": "patent US11590100B2", "about": "“Composition for buccal or sublingual administration of cannabis extract and methods for making same” (PANAXIA PHARMACEUTICAL INDUSTRIES LTD., priority 2017, dated 2023)", "origin": "cited, not measured here", "data": [{"compound": "CCCCCc1cc(O)c2c(c1)OC(C)(C)[C@@H]1CCC(C)=C[C@@H]21", "note": "[THC, Delta-9-tetrahydrocannabinol]", "values": [{"measurement": "peak effect", "setting": "after oral administration", "value": "2 to 4", "unit": "h"}, {"measurement": "absorbed", "setting": "after single oral doses", "value": "90-95%"}, {"measurement": "administered dose reaching the systemic circulation", "setting": "oral, first pass hepatic metabolism and poor aqueous solubility", "value": "10-20%"}]}]}
